Measured values from patent US6204005A, “Immunoassay for toxic congeners of polychlorinated biphenyls” (priority 1995, dated 2001).

Experiments:
[1] = relative to 2,3,7,8-TCDD = 1.0; cited from earlier work
[2] = system: antibody in serum immobilized on goat anti-rabbit second antibody coated tubes; experiment: Enzyme immunoassay (EIA) with HRP competitor or Hapten I conjugates, Aroclor 1248 analyte (Method D); type: binding; conditions: for Assay Response (I50): assay solution concentration of Aroclor 1248 producing 50% reduction in assay control signal, HRP conjugate of the listed competitor; for Relative Response: improvement in I50 sensitivity compared to homologous (Hapten I) based assay
Experimental: Serum stored at -20° C. was diluted 1,000-40,000 fold with PBS which contained 0.1% Tween-20. This solution was dispensed (500 μl) into goat anti-rabbit second antibody coated tubes (GAR Tubes commercially available from Millipore Corp., Bedford, Mass.) and incubated at room temperature overnight. The antisera solution was decanted from the tubes and the tubes were washed 3 times with distilled water. Non-specific sites in the tubes were blocked with 600 μl of a BSA blocking buffer (EIA Blocking Buffer commercially available from Millipore Corp., Bedford, Mass.) and incubated for 2 hours at room temperature or overnight at 4° C. The blocking buffer was decanted and the tubes allowed to dry under ambient room conditions for 2 hours or overnight. The assay was performed by adding 500 μl of assay diluent (1% methanol (v/v) and 0.005% Tween-20 (w/v) in distilled water) to the required number of tubes followed by 10 μl of a methanol solution which contained 0-50 ppm of Aroclor 1248. After a 5 minute incubation at room temperature, the solution was decanted and the tubes rinsed 3-4 times with tap water. The horseradish peroxidase-(HRP) competitor conjugate or Hapten I conjugates were diluted 100-100,000 fold from 2-5 mg/ml stock solutions in PBS with conjugate diluent (Enzyme Conjugate Diluent commercially available from Millipore Corp., Bedford, Mass.). Enzyme-competitor conjugate was added in 200 μl and the tubes were incubated at room temperature for 5 minutes. The conjugate solution was decanted and the tubes rinsed 3-4 times with tap water. Enzyme substrate solution (500 μl, KPL No. 50-76-04 commercially available from KPL Laboratories, Gaithersburg, Md.) was added and the tubes were incubated at room temperature for 3-15 minutes. The enzyme reaction was stopped with the addition of 500 μl of 1N HCl. The OD of the solution was determined at 450 nm and the I50 values were determined using a correlation of Log (Aroclor 1248 Concentration in the assay solution in parts per billion=ppb) versus B/Bo ratio where B=Sample Absorbance and Bo=Absorbance of the Blank Sample.
The competitors and Hapten I were conjugated to the enzyme, amino modified Horseradish Peroxidase (HRP) (horseradish peroxidase commercially available from Sigma Chemical Co. (No. P-6782), St. Louis, Mo.; amino modified per ref R. Hsiao and H. Royer, Archives Biochem. Biophysics, 198, 379-385 (1979) to give 6-24 free amines), using the carbodiimide mediated carboxyl activation procedure described for Hapten I in Example 5.
EIA analysis of Aroclor 1248 (Method D) was performed using horseradish peroxidase (HRP) Conjugates of the competitors illustrated in FIG. 4.

SMILES | TEF [1] | Assay Response (I50) [2] | Relative Response [2]
Clc1ccc(-c2cc(Cl)c(Cl)cc2Cl)c(Cl)c1 [2,2',4,4',5-pentachloro-] | less than 0.00001 |  | 
Clc1ccc(Cl)c(-c2ccccc2Cl)c1 [2,2',5-trichloro-] | less than 0.00001 |  | 
Clc1cc2c(cc1Cl)Oc1cc(Cl)c(Cl)cc1O2 [2,3,7,8-TCDD, 2,3,7,8-tetrachlorodibenzo-p-dioxin] | 1.0 |  | 
Clc1ccc(-c2ccccc2Cl)cc1 [2,4'-dichloro-] | less than 0.00001 |  | 
Clc1ccc(-c2ccc(Cl)cc2Cl)cc1 [2,4,4',trichloro-] | less than 0.00001 |  | 
Clc1ccc(-c2cc(Cl)c(Cl)c(Cl)c2)cc1 [BZ No. 81, 3,4,4',5-tetra] | 0.01 |  | 
Clc1ccc(-c2ccc(Cl)c(Cl)c2Cl)cc1Cl [BZ No. 105, 2,3,3',4,4'-penta] | 0.001 |  | 
Clc1ccc(-c2cc(Cl)c(Cl)c(Cl)c2Cl)cc1 [BZ No. 114, 2,3,4,4',5-penta] | 0.0001 |  | 
Clc1ccc(-c2cc(Cl)c(Cl)cc2Cl)cc1Cl [BZ No. 118, 2,3',4,4',5-penta] | 0.00 |  | 
Clc1ccc(-c2cc(Cl)c(Cl)c(Cl)c2)c(Cl)c1 [BZ No. 123, 2,3',4,4',5'-penta] | 0.001 |  | 
Clc1ccc(-c2cc(Cl)c(Cl)c(Cl)c2Cl)cc1Cl [BZ No. 156, 2,3,3',4,4',5-hexa] | 0.001 |  | 
Clc1cc(-c2ccc(Cl)c(Cl)c2Cl)cc(Cl)c1Cl [BZ No. 157, 2,3,3',4,4',5-hexa] | 0.00002 |  | 
Clc1cc(Cl)c(-c2cc(Cl)c(Cl)c(Cl)c2)cc1Cl [BZ No. 167, 2,3',4,4',5,5-hexa] | 0.001 |  | 
Clc1cc(-c2cc(Cl)c(Cl)c(Cl)c2)cc(Cl)c1Cl [BZ No. 169, 3,3',4,4',5,5-hexa] | 0.05 |  | 
Clc1cc(-c2cc(Cl)c(Cl)c(Cl)c2Cl)cc(Cl)c1Cl [BZ No. 189, 2,3,3',4,4',5,5'-hepta] | 0.001 |  | 
O=C(O)CCc1ccc(Cl)c(Cl)c1 [Competitor 9] |  | 47 ppb | 12 fold
O=C(O)CCCCc1cc(Cl)ccc1Cl [Competitor 11] |  | 18 ppb | 32 fold
O=C(O)CCCC(=O)c1ccc(Cl)c(Cl)c1 [Competitor 12] |  | 23 ppb | 24 fold
O=C(O)CCCC(=O)Nc1ccc(Cl)c(Cl)c1 [Competitor 13] |  | 2000 ppb | < 1 fold
O=C(O)C=Cc1ccc(Cl)c(Cl)c1 [Competitor 14] |  | 64 ppb | 9 fold
O=C(O)CCCOc1ccc(Cl)cc1Cl [Competitor 15] |  | 49 ppb | 12 fold
O=C(O)CCCOc1ccc(Cl)c(Cl)c1 [Competitor 16] |  | 31 ppb | 18 fold
O=C(O)CCCSc1cc(Cl)ccc1Cl [Competitor 17] |  | 33 ppb | 18 fold
O=C(O)CCCCCOc1ccc(-c2cc(Cl)c(Cl)cc2Cl)c(Cl)c1 [Hapten I, 6-(2,2',4',5'-Tetrachlorobiphenyloxy)-4-yl hexanoic acid] |  | 570 ppb | 
